In data set [1] the test system is rat. The conditions noted are these: Combined chronic toxicity/carcinogenicity, fischer, Oral, Feed, dose end: 2 year, group: systemic.
The test system of data set [2] is rat. The conditions noted are these: Subchronic oral toxicity in rodents, fischer, Feed, dose end: 14 week, group: systemic.
In data set [3] the test system is mouse. The conditions noted are these: Carcinogenicity; b6c3f1; Oral; Feed; dose end: 2 year; group: systemic; systemic / pathology microscopic / liver / hypertrophy.
For data set [4], the system named is mouse. The conditions noted are these: Subchronic oral toxicity in rodents, b6c3f1, Feed, dose end: 14 week, group: systemic.
Data set [5] deals with rat. To be noted: Subchronic oral toxicity in rodents, sprague dawley, Feed, dose end: 90 day, group: systemic, systemic / in life observation / clinical signs / soft stools + systemic / in life observation / clinical signs / defecation (diarrhea).
In data set [6] the test system is mouse. To be noted: Carcinogenicity, cd1, Oral, Feed, dose end: 98 week, group: systemic.
Data set [7] has as its system rabbit. To be noted: Prenatal developmental toxicity study, new zealand white, Oral, Gavage/Intubation, dose end: 18 GD.
Data set [8] deals with rat. To be noted: Multigenerational reproductive toxicity study, wistar, Oral, Feed, dose end: 2 generation.
Data set [9] concerns dog. To be noted: Chronic toxicity, beagle, Oral, Feed, dose end: 364 day, group: systemic.
The subject of data set [10] is rat. The conditions noted are these: Prenatal developmental toxicity study, wistar, Oral, Gavage/Intubation, dose end: 19 GD.
The subject of data set [11] is mouse. To be noted: Subchronic oral toxicity in rodents, other, Feed, dose end: 91 day, group: systemic.
The subject of data set [12] is mouse. To be noted: Carcinogenicity, other, Oral, Feed, dose end: 78 week, group: systemic.
Data set [13] relates to rat. To be noted: Chronic toxicity; wistar; Oral; Feed; dose end: 364 day; group: systemic; systemic / pathology gross / eye / opacity + systemic / pathology microscopic / eye / corneal pannus + systemic / pathology microscopic / ….
The subject of data set [14] is rat. The conditions noted are these: Carcinogenicity, wistar, Oral, Feed, dose end: 24 month, group: systemic.
Data set [15] deals with rat. To be noted: Subchronic oral toxicity in rodents, wistar, Feed, dose end: 13 week, group: systemic.
Data set [16] deals with dog. To be noted: Subchronic oral toxicity in nonrodent, beagle, Feed, dose end: 90 day, group: systemic.
In data set [17] the test system is rabbit. The conditions noted are these: Prenatal developmental toxicity study, himalayan, Oral, Gavage/Intubation, dose end: 28 GD.
Data set [18] relates to rabbit. The conditions noted are these: Prenatal developmental toxicity study, new zealand white, Oral, Gavage/Intubation, dose end: 28 GD.
Where [19] appears, read: systemic / in life observation / body weight / body weight + systemic / pathology microscopic / liver / hypertrophy.
Setting [20] is: systemic / pathology microscopic / liver / hypertrophy.
[21] abbreviates: systemic / clinical chemistry / alkaline phosphatase (alp/alk) / alkaline phosphatase (alp/alk).
Where [22] appears, read: systemic / hematology / platelet / platelet.
The mark [23] stands for this setting: systemic / in life observation / body weight / body weight + systemic / in life observation / body weight / body weight gain + systemic / ….
[24] abbreviates: systemic / pathology microscopic / liver / adenoma + systemic / pathology microscopic / liver / adenoma/carcinoma combined.
Setting [25] is: group: developmental, developmental / developmental malformation / brain / misshapen cerebrum + developmental / developmental malformation / eye / malpositioned….
Where [26] appears, read: group: maternal, systemic / in life observation / body weight / body weight gain.
Where [27] appears, read: group: offspring, systemic / organ weight / spleen / absolute + systemic / organ weight / spleen / relative to body weight.
The mark [28] stands for this setting: group: parental, systemic / organ weight / kidney / absolute + systemic / organ weight / kidney / relative to body weight + systemic / organ weight / liver….
Where [29] appears, read: group: parental, systemic / organ weight / thyroid gland / absolute.
[30] abbreviates: systemic / in life observation / food consumption / food efficiency + systemic / urinalysis / ketones / ketones + systemic / urinalysis / ph….
The mark [31] stands for this setting: group: developmental, developmental / developmental malformation / bone / full supernumerary + developmental / developmental malformation / bone / misshapen + ….
Setting [32] is: systemic / in life observation / food consumption / food consumption + systemic / organ weight / testes / absolute + systemic / organ weight….
[33] abbreviates: systemic / in life observation / body weight / body weight + systemic / in life observation / body weight / body weight gain.
The mark [34] stands for this setting: systemic / in life observation / mortality / mortality + systemic / pathology gross / lymph node / enlarged + systemic / pathology gross / ….
Where [35] appears, read: systemic / pathology gross / thyroid gland / altered colloid.
Where [36] appears, read: systemic / in life observation / body weight / body weight gain + systemic / in life observation / food consumption / food efficiency + ….
[37] abbreviates: systemic / urinalysis / ketones / ketones.
Setting [38] is: group: developmental, developmental / developmental malformation / bone / [other] + developmental / developmental malformation / bone / incomplete ossification + ….
The mark [39] stands for this setting: group: maternal, reproductive / reproductive performance / aborted / aborted + systemic / in life observation / body weight / body weight gain + systemic / ….
Setting [40] is: group: developmental, developmental / developmental malformation / bone / ossification sites + developmental / developmental malformation / bone / supernumerary.
The mark [41] stands for this setting: group: developmental, developmental / developmental malformation / bone / ossification sites + developmental / developmental malformation / bone / supernumerary….
Setting [42] is: group: maternal, systemic / clinical chemistry / tyrosine / tyrosine.

Consider `O=S(=O)(c1ccc(Cl)cc1)c1ccc(Cl)cc1` [4,4'-Dichlorodiphenyl sulfone], for which the LEL was determined as 1.5 mg/kg/day in data set [1] (systemic / in life observation / body weight / body weight), 2 mg/kg/day in [2] (setting [21]), 3.8 mg/kg/day in data set [3] and 3.5 mg/kg/day in [4] (setting [22]). For the same compound, the NEL in data set [1] (setting [19]) is 0.5 mg/kg/day; in data set [2] (setting [21]), < 2 mg/kg/day; in [3], < 3.8 mg/kg/day; in data set [4] (setting [22]), < 3.5 mg/kg/day. Further, the NOAEL in data set [1] (setting [19]) was 1.5 mg/kg/day; in data set [2] (systemic / organ weight / liver / absolute + systemic / organ weight / liver / relative to body weight + systemic / clinical chemistry / …), 2 mg/kg/day; in [3] it was < 3.8 mg/kg/day; in [4] (setting [23]), 15 mg/kg/day. In addition, the LOAEL came to 5 mg/kg/day in data set [1] (setting [20]), 6 mg/kg/day in data set [2] (systemic / organ weight / liver / absolute + systemic / organ weight / liver / relative to body weight + systemic / pathology microscopic / …), 3.8 mg/kg/day in [3] and 50 mg/kg/day in [4] (setting [23]).
On to `CCCCCC[C@H]1C(=O)O[C@H](C)[C@H](NC(=O)c2cccc(NC=O)c2O)C(=O)O[C@@H](C)[C@@H]1OC(=O)CC(C)C` [Antimycin A], for which, in [5], the LEL stood at 0.5 mg/kg/day, the LOAEL was 0.5 mg/kg/day, the NEL was < 0.5 mg/kg/day and the no-observed-adverse-effect level (NOAEL) is < 0.5 mg/kg/day.
Consider `CC(Oc1cccc(Cl)c1)C(=O)O` (configuration not stated) [Cloprop], for which the LEL in data set [6] (setting [24]) came out at 98 mg/kg/day; in data set [7] (setting [25]), 200 mg/kg/day; in [7] (setting [26]) it was 200 mg/kg/day. Also, the results for the NEL in [6] (setting [24]), in data set [7] (setting [25]) and in data set [7] (setting [26]) were < 98 mg/kg/day, 100 mg/kg/day and 100 mg/kg/day, respectively. Further, the results for the LOAEL in [6] (setting [20]), in [7] (setting [25]) and in data set [7] (setting [26]) were 402 mg/kg/day, 200 mg/kg/day and 200 mg/kg/day, respectively. Also, the values for the NOAEL in [6] (systemic / pathology microscopic / liver / hypertrophy + systemic / pathology microscopic / liver / adenoma + systemic / pathology …), in data set [7] (setting [25]) and in data set [7] (setting [26]) were 98 mg/kg/day, 100 mg/kg/day and 100 mg/kg/day, respectively.
For `Cc1c(C(=O)c2c[nH]n(C)c2=O)ccc(S(C)(=O)=O)c1C1=NOCC1` [Topramezone], the NOAEL in [8] (group: offspring, developmental / developmental landmark / preputial separation / preputial separation + developmental / offspring survival late / viability …) was 0.4 mg/kg/day; in data set [8] (setting [28]) it was 0.4 mg/kg/day; in data set [9] (systemic / pathology microscopic / thyroid gland / hyperplasia + systemic / in life observation / body weight / body weight + systemic / in …), 2.9 mg/kg/day; in data set [10] (setting [31]), < 100 mg/kg/day; in data set [10] (setting [26]) it was < 100 mg/kg/day; in data set [11] (setting [32]) it was ≥ 2290 mg/kg/day. The no observed adverse effect level (NOAEL) in data set [12] (setting [33]) was < 19 mg/kg/day; in data set [13] it was 0.4 mg/kg/day; in data set [14] (setting [34]), 0.4 mg/kg/day; in data set [15] (systemic / pathology microscopic / pancreas / degeneration + systemic / clinical chemistry / alkaline phosphatase (alp/alk) / alkaline …) it was 1.1 mg/kg/day; in [16] (setting [36]) it was 535 mg/kg/day; in data set [17] (setting [38]) it was < 50 mg/kg/day. For the same compound, the NOAEL is 150 mg/kg/day in data set [17] (setting [39]), 0.5 mg/kg/day in data set [18] (setting [41]) and < 0.5 mg/kg/day in [18] (setting [42]). Also, the LOAEL in data set [8] (group: offspring, developmental / developmental landmark / preputial separation / preputial separation + systemic / in life observation / body weight / litter…) is 4.2 mg/kg/day; in data set [8] (setting [28]), 4.2 mg/kg/day; in data set [9] (systemic / pathology microscopic / thyroid gland / hyperplasia), 15.3 mg/kg/day; in data set [10] (setting [31]), 100 mg/kg/day; in [10] (setting [26]), 100 mg/kg/day; in [11] (setting [32]), > 2290 mg/kg/day. The LOAEL in data set [12] (setting [33]) is 19 mg/kg/day; in data set [13], 3.9 mg/kg/day; in data set [14] (systemic / pathology microscopic / thyroid gland / hyperplasia + systemic / pathology microscopic / thyroid gland / hypertrophy + systemic…), 3.6 mg/kg/day; in [15] (systemic / pathology microscopic / pancreas / degeneration) it was 2.1 mg/kg/day; in data set [16] (setting [36]), 1510 mg/kg/day; in [17] (setting [38]) it was 50 mg/kg/day. In addition, the LOAEL in data set [17] (setting [39]) turned out to be 450 mg/kg/day; in data set [18] (setting [40]) it was 5 mg/kg/day; in data set [18] (setting [42]), 0.5 mg/kg/day. The LEL came to 0.4 mg/kg/day in [8] (setting [27]); 0.5 mg/kg/day in [8] (setting [29]); 2.9 mg/kg/day in data set [9] (setting [30]); 100 mg/kg/day in [10] (setting [31]); 100 mg/kg/day in data set [10] (setting [26]); 406 mg/kg/day in [11] (systemic / organ weight / liver / relative to body weight). The LEL in data set [12] (setting [23]) was 19 mg/kg/day; in data set [13] it was 3.9 mg/kg/day; in [14] (setting [34]) it was 0.4 mg/kg/day; in data set [15] (setting [35]), 1.1 mg/kg/day; in data set [16] (setting [37]), 182 mg/kg/day; in [17] (setting [38]), 50 mg/kg/day. Besides, the LEL in data set [17] (setting [39]) was determined as 450 mg/kg/day; in data set [18] (setting [40]), 5 mg/kg/day; in [18] (setting [42]), 0.5 mg/kg/day. For the same compound, the NEL in data set [8] (setting [27]) is < 0.4 mg/kg/day; in [8] (setting [29]), < 0.5 mg/kg/day; in data set [9] (setting [30]) it was < 2.9 mg/kg/day; in [10] (setting [31]), < 100 mg/kg/day; in data set [10] (setting [26]), < 100 mg/kg/day; in [11] (systemic / organ weight / liver / relative to body weight + systemic / in life observation / body weight / body weight gain + systemic / in …), 51 mg/kg/day. Moreover, the NEL in data set [12] (setting [23]) was < 19 mg/kg/day; in [13], 0.4 mg/kg/day; in data set [14] (setting [34]), < 0.4 mg/kg/day; in data set [15] (setting [35]), < 1.1 mg/kg/day; in data set [16] (setting [37]), < 182 mg/kg/day; in data set [17] (setting [38]), < 50 mg/kg/day. Also, the values for the NEL in [17] (setting [39]), in [18] (setting [41]) and in [18] (setting [42]) were 150 mg/kg/day, 0.5 mg/kg/day and < 0.5 mg/kg/day, respectively.

The record behind these values is EPA's ToxRefDB 2.
